From patent US8394395B2, “Use of a cosmetic composition for the care of fatty skin” (Laboratories Clarins, priority 2006, dated 2013) come the findings set out here.

In series [1] the test system is human sebocytes (Hs 917.T, ATCC line No. CRL-7669). Briefly: Sebocyte viability (MTT exclusion test). The following applies: chrysin concentrations of 10^−3% and 5×10^−3%; compared with conventional culture medium. The class given is cell-based. On the procedure: A line of human sebocytes (Hs 917.T, ATCC line No. CRL-7669) was cultured in Dulbecco's modified Eagle's medium with 4.5 g/l of D-glucose and 10% of fetal calf serum. These adherent cells have a polygonal morphology and large nuclei. Firstly, we verified the viability (MTT exclusion test) of the sebocytes in the presence of chrysin at various concentrations, in comparison with their conventional culture medium.
In general terms: Formazan colour is commonly taken as a measure of viable cells.

Series [2] shares this test system. Description: Sebocyte proliferation, M.T.T. colorimetric test. It counts as cell-based. The following applies: 72 hours of culture, versus reference medium. On the procedure:
A line of human sebocytes (Hs 917.T, ATCC line No. CRL-7669) was cultured in Dulbecco's modified Eagle's medium with 4.5 g/l of D-glucose and 10% of fetal calf serum. These adherent cells have a polygonal morphology and large nuclei.
Proliferation was evaluated by means of a validated colorimetric test, the M.T.T. test (dimethyl thiazolyl diphenyl tetrazolium) (according to Mosmann, J. Immunol. Meth. 1983 65: 55-63). This compound is metabolized by the mitochondria, to give blue formazan crystals, the amount of which depends directly on the activity of the mitochondrial succinate dehydrogenase enzyme and on the number of living cells.
As a result of this, the proliferation is measured by colorimetery (570 nm).
The proliferation was therefore evaluated according to the following conditions: • sebocytes in reference medium; • sebocytes cultured in the presence of the reference medium supplemented with chrysin at the 2 concentrations of 10^−3% and 5×10^−3%.
For each condition performed in sextuplet, the proliferation was analyzed after 72 hours of culture.

With `O=c1cc(-c2ccccc2)oc2cc(O)cc(O)c12` [chrysin, 5,7-dihydroxyflavone], the “cytotoxicity on sebocytes (viability)” value in series [1] is recorded as “did not induce any cytotoxicity”. Also, the “difference in proliferation of human sebocytes in culture” value in series [2] (chrysin concentration 5×10^−3%) is −18.4%; in series [2] (chrysin concentration 10^−3%) it was −10.5%.
